# Measurements reported in patent US5025036A, “Catechol carboxylic acids” (Hoffmann-La Roche Inc., priority 1989, dated 1991).
# Assays:
# [1] = system: myeloperoxidase accumulation (acetic acid-induced colitis); experiment: Acetic Acid-Induced Colitis in Rats, In Vivo; design: species or system male rats (Sprague-Dawley)
# Description: The rat acetic acid-induced colitis bioassay has been described by J. E. Krawisz, et al. in Amer. J. Proc. Gastro. Col. Rec. Surg. 31: 11-18 (1980), and by P. Sharon and W. F. Stenson in Gastroenterolgy 88: 55-63 (1985) and 86: 453-460 (1984). Acetic acid-induced colitis is characterized by the movement of inflammatory cells into the colon, with the number of such cells in the mucosa being measured by the activity of myeloperoxidase, a marker enzyme for these cells. Positive desirable activity is indicated by a reduction in the high levels of myeloperoxidase caused by acetic acid. Male rats (Sprague-Dawley), weighing 150 to 300 g, were pretreated twice daily for two days with either the vehicle (water, or dimethylsulfoxide) or the test inhibitor compound suspended in water or dissolved in dimethylsulfoxide and orally administered. On the third day, the animals were dosed the same as on the previous two days, anesthetized with metofane, and 2 ml of 2.5% acetic acid was injected by syringe into the colonic lumen, followed immediately by 3 ml of air and a rinse consisting of 3 ml of phosphate-buffered saline (the acetic acid is present in the lumen for a sufficient period to cause inflammation without producing severe necrosis or irreversible damage). The animals were administered a second dose of the test compound in the same amount about 16 hours later. 24 hours after the acetic acid treatment, the animals were sacrificed, the colonic mucosa was surgically removed and homogenized in an aqueous buffer at pH 6 with a Tissumizer or similar device and myeloperoxidase was measured in the homogenate using o-phenylenediamine as a chromagen, as described by A. Voller, D. E. Bidwell and A. Bartlett in The Enzyme Linked Immunosorbent Assay (ELISA), Zoological Soc., London, 1979, pages 29-30. Control animals were pretreated with the vehicle and saline in place of acetic acid.
# [2] = molecular target: T1, Δ^5 -lipoxygenase from rat basophilic leukemia (RBL-1) cells (Rattus norvegicus, UniProt P12527); experiment: In vitro test for Δ^5-lipoxygenase inhibitors (5-HETE radioimmunoassay); format: biochemical; conditions: for IC50: RBL-1 5-LO, 5-HETE formation, read-out: Inhib. of Δ^5 Lipoxygenase IC50
# T1 construct: The isolated cytosolic fraction was stored in liquid N2 for up to 8 weeks without loss of 5-LO enzyme activity; endogenous in cells; host or cells: RBL-1 cells (ATCC CRL 1378), 113,000×g supernatant (cytosol)
# T1 sequence (P12527 1-673): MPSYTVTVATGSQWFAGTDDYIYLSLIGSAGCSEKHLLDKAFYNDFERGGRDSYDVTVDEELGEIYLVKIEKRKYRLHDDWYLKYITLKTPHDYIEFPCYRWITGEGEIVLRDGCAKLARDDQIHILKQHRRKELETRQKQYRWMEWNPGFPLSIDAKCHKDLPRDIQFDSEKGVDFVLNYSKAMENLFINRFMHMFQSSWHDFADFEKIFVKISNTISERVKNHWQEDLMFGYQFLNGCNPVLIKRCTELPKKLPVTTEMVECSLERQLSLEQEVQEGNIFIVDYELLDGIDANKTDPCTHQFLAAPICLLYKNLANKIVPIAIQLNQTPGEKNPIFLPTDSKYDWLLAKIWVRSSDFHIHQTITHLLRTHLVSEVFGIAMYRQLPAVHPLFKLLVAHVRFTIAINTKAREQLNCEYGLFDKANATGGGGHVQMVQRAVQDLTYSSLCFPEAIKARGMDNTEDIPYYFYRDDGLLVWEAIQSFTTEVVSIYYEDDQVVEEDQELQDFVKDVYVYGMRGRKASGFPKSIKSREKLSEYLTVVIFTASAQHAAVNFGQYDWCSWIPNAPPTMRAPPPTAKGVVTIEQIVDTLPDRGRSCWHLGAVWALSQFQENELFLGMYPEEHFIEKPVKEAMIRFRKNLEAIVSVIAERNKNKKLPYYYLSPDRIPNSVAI
# Method: RBL-1 cells (CRL 1378) were obtained from the American Type Culture Collection, Rockville, MD. DMEM and glutamine were purchased from Flow Labs, McLean, Va. FBS (Gibco, Grand Island, N.Y.) was heat-inactivated for 1 hour at 56° C. Reagents for protein determinations were obtained from Biorad, Rockville Center, N.Y. Arachidonic acid (approx. 99%), ATP (disodium salt), BHT, dextran (clinical grade), tetrasodium EDTA, gelatin, gentamycin sulfate solution, reduced glutathione, 1 M HEPES buffer, indomethacin, NaCl, reduced NADPH, Trizma 7.2, and Trizma 8.5 were purchased from Sigma Chemical, St. Louis, Mo. CaCL2 dihydrate, Norit A charcoal, and citric acid monohydrate were obtained from Fisher Scientific, Pittsburgh, Pa. […] A synthetic 5-HETE standard was supplied by Dr. M. Rosenberger, Dept. of Medicinal Chemistry, Hoffmann La-Roche, Nutley, N.J.; [see Corey, E. J., and Hashimoto, S. (1981) Tet. […] Approximately 7-9 days after thawing, RBL-1 cells growing in log phase were seeded at a density of 7500 viable cells/ml in a closed 89-liter spinner flask. […] RBL-1 cells were harvested by centrifugation at 4° C. at 1500×g for 10 minutes and were washed 3 times with ice cold 0.05M tris-hCl, pH 7.2, tetrasodium EDTA (buffer 1). The cells were washed last in 0.05M Tris-HCl containing 14 μM indomethacin, 1 mM glutathione, 1.5 mM NaCl, and 1 mM tetrasodium EDTA (buffer 2), resuspended at a density of 5×108'/ml approximately 10 ml) and disrupted manually at 4° C. using a 40 ml Dounce (type A pestle) homogenizer. After 5 minutes of homogenization, 95% cell lysis was confirmed by phase contrast microscopy. The broken cells were diluted 1:2 with buffer 2 and centrifuged at 12,380×g for 10 minutes at 4° C. to pellet cellular debris and granules. The 12,380×g supernatant was centrifuged at 113,000×g for 60 minutes to pellet microsomes. The high-speed supernatant (5.9±0.48 mg/ml protein) was frozen immediately in 1 ml aliquots using a dry ice/acetone bath. The isolated cytosolic fraction was stored in liquid N2 for up to 8 weeks without loss of 5-LO enzyme activity. Compounds were dissolved at 25 mM concentration in DMSO, then diluted to final concentrations using 95% ethanol. For a typical enzyme assay, the partially purified 5-LO preparation was preincubated with drug or vehicle for 10 minutes at 30° C. The assay tubes were then transferred at a 37° C. water bath where they received arachidonic acid (8.25 μM final concentration) to initiate 5-LO activity. […] The samples were immediately cooled on ice and neutralized by dilution with 0.05M Tris-HCl, pH 8.5, which contained 25 mg/1 BHT. A boiled cytosol control was placed at the end of each assay to emasure non-enzymatic oxidation of arachidonic acid. […] Under the assay conditions described, the 5-LO catalyzed the conversion of arachidonic acid to 5-HPETE which, as a consequence of peroxidase activity, was reduced to 5-HETE. A specific radioimmunoassay was employed to quantitate the amount (pmoles) of 5-HETE formed during the enzyme reaction. To prepare the immunogen, Dr. M. Rosenberger (Dept. of Medicinal Chemistry) converted the racemic 5-HETE lactone (Corey, E. J., and Hashimoto, S. (1981) Tet. Letters, 22, 299-302) to its hydrazine derivative. The hydrazide was conjugated to thiolated Keyhole Limpet Hemocyanin (Young, […]., and Rokach, J. (1982) Prostaglandins 23, 603-613) using N-ethyl-maleimide as previously described for LTB4 by (Young, R., N, Zomboni, R. and Rokach, J. 91983) Prostaglandins, 26, 605-613). New Zealand White rabbits received multiple intradermal injections on their backs with […] conjugate emulsified in complete Freund's adjuvant. A schedule of injections reported by Salmon (Salmon, J. A. (1978) Prostaglandins, 15, 383-397) was followed. After the monthly i.p. booster injections, blood was obtained from the marginal ear vein 5-7 days later and assessed for antibody titer. […]
# Carrageenan pleurisy = experiment: Carrageenan Pleurisy Test (In Vivo); design: species or system male Lewis rats; conditions: Rattus norvegicus, po, read-out: Rat Carrageenan Pleurisy % Inhib. of Exudate Volume
# Method: The animals utilized in these studies were male Lewis rats (Charles River Breeding Laboratories) weighing between 230-250 g. […] At 5 or 24 hours after CG injection, the rats were killed by decapitation, exsanguinated, and the pleural cavity exposed by cutting the ribs on both sides of the sternum. The exudate fluid was removed from the pleural cavity with disposable plastic pipettes and its volume quantitated. The pleural cavity was then washed once with phosphate buffered saline containing fetal bovine serum (1:1) and the washings combined with the exudate. The total number of cells in the pleural cavity was quantitated using a Coulter Counter (Model ZM) adjusted to exclude any contaminating RBC. (Published in "Plant Flavonoids in Biology & Medicine: Biochemical, Pharmacological and Structure-Activity Relationships" p. 231-242 (1986) Alan R. Liss, Inc.)
smiles,measurement,setting,value
"CCCc1c(OCCCCCc2ccc(O)c(O)c2)ccc(C(C)=O)c1O [1-[4-[5-(3,4-Dihydroxyphenyl)pentyloxy]-2-hydroxy-3-propylphenyl]-1-ethanone]",Rat Acetic Acid Colitis Model % Inhib. of Myeloperoxidase Accumulation,[1]; 10 mg/kg p.o,52 ± 6%
"CCCc1c(OCCCCCCc2cccc(O)c2O)ccc(C(C)=O)c1O [1-[4-[6-(2,3-Dihydroxyphenyl)hexyloxy]]",Rat Acetic Acid Colitis Model % Inhib. of Myeloperoxidase Accumulation,[1]; 10 mg/kg p.o,51 ± 5%
"CCCc1c(OCCCCCCc2cccc(O)c2O)ccc(C(=O)O)c1OC(C)=O [2-Acetyloxy-4-[6-(2,3-dihydroxyphenyl)hexyloxy]-3-propylbenzoic acid]",IC50,[2],190 nM
same,inhibition in vivo at 100 mg/kg,Carrageenan pleurisy; at 100 mg/kg p.o,42%
"Nc1cc(C(=O)O)ccc1OCCCCCCc1cccc(O)c1O [3-Amino-4-[6-(2,3-dihydroxyphenyl)hexyloxy]benzoic acid]",Rat Acetic Acid Colitis Model % Inhib. of Myeloperoxidase Accumulation,[1]; 1 mg/kg p.o,55 ± 7%
"CCCc1c(OCCc2ccc(O)c(O)c2)ccc(C(=O)O)c1O [4 [2 (3,4 Dihydroxyphenyl)ethoxy]-2 hydroxy 3 propylbenzoic acid]",Rat Acetic Acid Colitis Model % Inhib. of Myeloperoxidase Accumulation,[1]; 10 mg/kg p.o,56 ± 6%
"CCCc1c(OCCCc2cccc(O)c2O)ccc(C(=O)O)c1O [4-[3-(2,3-Dihydroxyphenyl)propoxy]-2-hydroxy-3-propylbenzoic acid]",Rat Acetic Acid Colitis Model % Inhib. of Myeloperoxidase Accumulation,[1]; 10 mg/kg p.o,54 ± 5%
"CCCc1c(OCCCCCc2c(O)c(O)c(Cl)c(Cl)c2Cl)ccc(C(=O)O)c1O [4-[5-(2,3,4-Trichloro-5,6-dihydroxyphenyl)pentyloxy]-2-hydroxy-3-propylbenzoic acid]",Rat Acetic Acid Colitis Model % Inhib. of Myeloperoxidase Accumulation,[1]; 1 mg/kg p.o,115 ± 21%
"CCCc1c(OCCCCCc2c(O)c(O)cc(Cl)c2Cl)ccc(C(=O)O)c1O [4-[5-(2,3-Dichloro-5,6-dihydroxyphenyl)pentyloxy]-2-hydroxy-3-propylbenzoicacid]",Rat Acetic Acid Colitis Model % Inhib. of Myeloperoxidase Accumulation,[1]; 1 mg/kg p.o,73 ± 5%
"CCCc1c(OCCCCCc2c(Cl)ccc(O)c2O)ccc(C(=O)O)c1O [4-[5-(2-Chloro-5,6-dihydroxyphenyl)pentyloxy]-2-hydroxy-3-propylbenzoic acid]",Rat Acetic Acid Colitis Model % Inhib. of Myeloperoxidase Accumulation,[1]; 3 mg/kg p.o,54 ± 9%
"CCCc1c(OCCCCCCc2cccc(OC(C)=O)c2OC(C)=O)ccc(C(=O)O)c1O [4-[6-[2,3-Bis(acetyloxy)phenyl]hexyloxy]-2-hydroxy-3-propylbenzoic acid]",IC50,[2],150 nM
same,inhibition in vivo at 75 mg/kg,Carrageenan pleurisy; at 75 mg/kg p.o,43%
"CCCc1c(OCCCCCC(=O)c2cc(O)c(O)cc2F)ccc(C(=O)O)c1O [4-[[6-(2-Fluoro-4,5-dihydroxyphenyl)-6-oxohexyl]oxy]-2-hydroxy-3-propylbenzoic acid]",Rat Acetic Acid Colitis Model % Inhib. of Myeloperoxidase Accumulation,[1]; 10 mg/kg p.o,40 ± 5%
"CCCc1c(OCCCCCCc2cc(C)c(O)c(O)c2C)ccc(C(=O)O)c1O [4-[[6-(3,4-Dihydroxy-2,5-dimethylphenyl)hexyloxy]-2-hydroxy-3-propylbenzoicacid]",Rat Acetic Acid Colitis Model % Inhib. of Myeloperoxidase Accumulation,[1]; 3 mg/kg p.o,37 ± 6%
same,Rat Acetic Acid Colitis Model % Inhib. of Myeloperoxidase Accumulation,[1]; 10 mg/kg p.o,85 ± 13%
"CCCc1c(OCCCCCC(=O)c2ccc(O)c(O)c2)ccc(C(=O)O)c1O [4-[[6-(3,4-Dihydroxyphenyl)-6-oxohexyl]oxy]-2-hydroxy-3-propylbenzoic acid]",inhibition at 1 µM,"[2]; read-out: Inhib. of Δ^5 Lipoxygenase, % inhibition at 1 μM",51%
